For the assay, the target named is T1, Human TRPV3 (Homo sapiens, UniProt Q8NET8).
T1 construct: expressed in transfected cells; host or cells: CHO cells (selected with G-418)
T1 sequence (Q8NET8 1-790): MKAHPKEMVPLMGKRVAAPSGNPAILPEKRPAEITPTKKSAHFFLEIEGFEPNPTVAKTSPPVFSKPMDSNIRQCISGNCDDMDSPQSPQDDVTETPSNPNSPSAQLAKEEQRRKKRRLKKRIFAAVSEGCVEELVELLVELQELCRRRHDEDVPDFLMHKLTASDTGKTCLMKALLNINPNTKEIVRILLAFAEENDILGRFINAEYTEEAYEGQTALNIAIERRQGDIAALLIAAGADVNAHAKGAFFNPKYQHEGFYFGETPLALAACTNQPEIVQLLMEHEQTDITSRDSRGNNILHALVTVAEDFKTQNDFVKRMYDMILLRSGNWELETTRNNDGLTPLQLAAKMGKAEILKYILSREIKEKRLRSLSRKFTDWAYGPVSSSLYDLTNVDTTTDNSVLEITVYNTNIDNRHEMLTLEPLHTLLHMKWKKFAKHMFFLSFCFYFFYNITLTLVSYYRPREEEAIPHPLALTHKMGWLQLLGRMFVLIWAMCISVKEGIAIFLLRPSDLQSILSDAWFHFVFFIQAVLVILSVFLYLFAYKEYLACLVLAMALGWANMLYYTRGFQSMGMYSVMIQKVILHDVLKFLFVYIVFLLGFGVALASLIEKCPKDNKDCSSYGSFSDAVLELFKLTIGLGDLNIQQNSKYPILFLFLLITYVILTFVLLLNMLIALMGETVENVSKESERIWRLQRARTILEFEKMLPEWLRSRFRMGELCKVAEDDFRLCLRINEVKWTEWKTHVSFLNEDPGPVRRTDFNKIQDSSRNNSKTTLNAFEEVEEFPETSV
In words: 45Calcium uptake assay: inhibition of 2-APB induced cellular uptake of radioactive calcium. It counts as cell-based. To be noted: human TRPV3 expressing CHO cells, 2-APB 500 μM; for inhibition at 1 µM: 1 μM test compound, read-out: Percentage Inhibition (1 μM); for inhibition at 10 µM: 10 μM test compound, read-out: Percentage Inhibition (10 μM); for pIC50: class symbol. An excerpt: The illustrative examples of the present invention are screened for TRPV3 activity according to a modified procedure described in Tóth, A., Kedei, N., Wang, Y. and Blumberg, P. M. Life Sciences (2003), 73, 487-498. The screening of the compounds can be carried out by other methods and procedures known to a person skilled in the art. Such screening methods may be found in (a) Hu, H.-Z. et al. J. Biol. Chem. (2004), 279, 35741-35747; (b) Smith, G. D. et al. Nature (2002), 418, 186-190; (c) Peier, A. M. et al. Science (2002), 296, 2046-2049.
Screening for TRPV3 antagonist using the ^45Calcium uptake assay The inhibition of TRPV3 receptor activation was followed as inhibition of 2-aminoethoxydiphenylborate (2-APB) induced cellular uptake of radioactive calcium. Test compounds were dissolved in dimethyl sulfoxide (DMSO) to prepare 20 mM stock solution and then diluted using plain medium with DMEM/F-12 containing 1.8 mM CaCl2 to get desired concentration. Final concentration of DMSO in the reaction was 0.5% (v/v). Human TRPV3 expressing CHO cells were grown in DMEM/F-12 medium with 10% FBS, 1% penicillin-streptomycin solution, 400 μg/ml of G-418. Cells were seeded 24 h prior to the assay in 96 well plates so as to get ˜50,000 cells per well on the day of experiment. Cells were treated with test compounds for 10 minutes followed by addition of 2-APB at a final concentration of 500 μM and 5 μCi/ml^45Ca^+2 for 4 minutes. Cells were washed and lysed using buffer containing 1% Triton X-100, 0.1% deoxycholate and 0.1% SDS. Radioactivity in the lysate was measured in Packardt Top count after addition of liquid scintillant. Concentration response curves were plotted as a % of maximal response obtained in the absence of test antagonist. IC50 value was calculated from concentration response curve by nonlinear regression analysis using GraphPad PRISM software.
Percentage inhibition at concentrations of 1.0 μM and 10.0 μM are given in the table along with IC50 details for selected examples.

pIC50: −log10 of the molar value.

Consider `COc1cccc(/C=C/c2nc3cc(F)c(F)cc3n2-c2ccc(C#N)nn2)c1OC1CCCC1` [Example 76, 6-{2-[(E)-2-(2-Cyclopentyloxy-3-methoxyphenyl)vinyl]-5,6-difluoro-1H-benzimidazol-1-yl}pyridazine-3-carbonitrile], for which the inhibition at 1 µM was 96.3%, the inhibition at 10 µM is 97% and the pIC50 is 6.30 to 7.00.

As to `COc1cccc(/C=C/c2nc3cc(OC(F)F)ccc3n2-c2ccc(C#N)cn2)c1OC1CCCC1` [Example 59, 6-{2-[(E)-2-(2-[Cyclopentyloxy]-3-methoxyphenyl)vinyl]-5-(difluoromethoxy)-1H-benzimidazol-1-yl}nicotinonitrile], the inhibition at 1 µM was found to be 95.8%, the inhibition at 10 µM was found to be 97.9% and the negative-log IC50 (pIC50) was 7.00 to 7.30.

Turning to `COc1cccc(/C=C/c2nc3cc(F)c(F)cc3n2-c2ncccc2C#N)c1OC1CCCC1` [Example 61, 2-{2-[(E)-2-(2-Cyclopentyloxy-3-methoxyphenyl)vinyl]-5,6-difluoro-1H-benzimidazol-1-yl}nicotinonitrile], the inhibition at 1 µM amounted to 44.8% and the inhibition at 10 µM is 96%.

`CCC(CC)Oc1c(/C=C/c2nc3ccccc3n2-c2ccc(C#N)cn2)cccc1OC` [Example 10, 6-{2-[(E)-2-(2-(1-Ethylpropoxy)-3-methoxyphenyl)vinyl]-1H-benzimidazol-1-yl}nicotinonitrile]: the inhibition at 1 µM is 96.6%, the inhibition at 10 µM stood at 99.1% and the pIC50 was 6.30 to 7.00.

Turning to `COc1cccc(/C=C/c2nc3ccccc3n2-c2ccc(C#N)cn2)c1OCC(C)C` [Example 11, 6-(2-{(E)-2-[3-methoxy-2-(2-methylpropoxy)phenyl]ethenyl}-1H-benzimidazol-1-yl)pyridine-3-carbonitrile], the inhibition at 1 µM was 94.8%, the inhibition at 10 µM stood at 97.4% and the negative logarithm of the IC50 (pIC50) is 6.30 to 7.00.

Regarding `CCCCCOc1c(/C=C/c2nc3ccc[n+]([O-])c3n2-c2ccc(C#N)cn2)cccc1OC` [Example 88, 6(2-{(E)-2-[3-methoxy-2-(pentyloxy)phenyl]ethenyl}-4-oxido-3H-imidazo[4,5-b]pyridin-3-yl)pyridine-3-carbonitrile], the inhibition at 1 µM is 25.1% and the inhibition at 10 µM came out at 71.1%.

Take `COc1cccc(/C=C/c2nc3cc(F)c(F)cc3n2-c2ccc(C(=O)O)nn2)c1OC1CCCC1` [Example 74, 6-{2-[(E)-2-(2-Cyclopentyloxy-3-methoxyphenyl)vinyl]-5,6-difluoro-1H-benzimidazol-1-yl}pyridazine-3-carboxylic acid]: the inhibition at 1 µM is 1.7% and the inhibition at 10 µM amounted to 1.51%.

On to `COc1cccc(/C=C/c2nc3ccccc3n2-c2ncc(Cl)cc2Cl)c1OCc1ccccc1` [Example 5, 2-[(E)-2-(2-Benzyloxy-3-methoxyphenyl)vinyl]-1-(3,5-dichloropyridin-2-yl)-1H-benzimidazole], for which the inhibition at 1 µM came out at 38.8% and the inhibition at 10 µM stood at 69.3%.

`COc1cccc(/C=C/c2nc3ccccc3n2-c2ccc(C#N)nn2)c1OC1CCCC1` [Example 20, 6-{2-[(E)-2-(2-[Cyclopentyloxy]-3-methoxyphenyl)vinyl]-1H-benzimidazol-1-yl}pyridazine-3-carbonitrile]: the inhibition at 1 µM was 0% and the inhibition at 10 µM worked out at 52.7%.

On to `COc1cccc(/C=C/c2nc3c(F)cc(F)cc3n2-c2ccc(C#N)cn2)c1OC1CCCC1` [Example 80, 6-{4,6-Difluoro-2-[(E)-2-(2-[cyclopentyloxy]-3-methoxyphenyl)vinyl]-1H-benzimidazol-1-yl}nicotinonitrile], for which the inhibition at 1 µM was determined as 97.6%, the inhibition at 10 µM amounted to 98.8% and the negative logarithm of the IC50 (pIC50) is 7.00 to 7.30.

With `N#Cc1ccc(-n2c(/C=C/c3cccc(OC(F)F)c3OCC3CCC3)nc3cccnc32)nc1` [Example 97, 6-(2-{(E)-2-[2-(Cyclobutylmethoxy)-3-difluoromethoxyphenyl]vinyl}-3H-imidazo[4,5-b]pyridin-3-yl)nicotinonitrile], the inhibition at 1 µM was determined as 96%, the inhibition at 10 µM worked out at 99.2% and the negative-log IC50 (pIC50) is 7.00 to 7.30.

Regarding `COC(=O)c1ccc(-n2c(/C=C/c3cccc(OC)c3OC3CCCC3)nc3ccccc32)nc1` [Example 30, Methyl 6-(2-{(E)-2-[2-(Cyclopentyloxy)-3-methoxyphenyl]vinyl}-1H-benzimidazol-1-yl)nicotinate], the inhibition at 1 µM came to 16.4% and the inhibition at 10 µM was found to be 27.5%.

For the compound `COc1cccc(/C=C/c2nc3ccc(F)cc3n2-c2ccc(C#N)cn2)c1OC1CCCC1` [Example 53, 6-{2-[(E)-2-(2-Cyclopentyloxy-3-methoxyphenyl)vinyl]-6-fluoro-1H-benzimidazol-1-yl}nicotinonitrile], the inhibition at 1 µM came out at 96%, the inhibition at 10 µM was 98.7% and the pIC50 was 6.30 to 7.00.

`CCOC(=O)c1ccc(-n2c(/C=C/c3cccc(OC)c3OC3CCCC3)nc3ccccc32)nn1` [Example 19, Ethyl 6-{2-[(E)-2-(2-[Cyclopentyloxy]-3-methoxyphenyl)vinyl]-1H-benzimidazol-1-yl}pyridazine-3-carboxylate]: the inhibition at 1 µM turned out to be 82.9%, the inhibition at 10 µM was determined as 95.9% and the pIC50 is 6.30 to 7.00.

As for `COc1cccc(/C=C/c2nc3cccnc3n2-c2ccc(C#N)cn2)c1OCC1CCC1` [Example 90, 6-[2-{(E)-2-[2-(Cyclobutylmethoxy)-3-methoxyphenyl]vinyl}-3H-imidazo[4,5-b]pyridine-3-yl]nicotinonitrile], the inhibition at 1 µM came to 93.3%, the inhibition at 10 µM is 98.2% and the pIC50 is 7.00 to 7.30.

Consider `COc1cccc(/C=C/c2nc3ccccc3n2-c2ccc(C#N)cn2)c1OCc1ccccc1F` [Example 14, 6-(2-{(E)-2-[2-(2-Fluorobenzyloxy)-3-methoxyphenyl]vinyl}-1H-benzimidazol-1-yl)nicotinonitrile], for which the inhibition at 1 µM was 93.2%, the inhibition at 10 µM came out at 97.7% and the pIC50 is 6.30 to 7.00.

As for `COc1cccc(/C=C/c2nc3cc(Cl)c(C(F)(F)F)cc3n2-c2ccc(C#N)cn2)c1OC1CCCC1` [Example 71, 6-{5-Chloro-2-[(E)-2-(2-cyclopentyloxy-3-methoxyphenyl)vinyl]-6-(trifluoromethyl)-1H-benzimidazol-1-yl}nicotinonitrile], the inhibition at 1 µM turned out to be 53.7% and the inhibition at 10 µM is 79.4%.

For the compound `COc1cccc(/C=C/c2nc3ccccc3n2-c2nc3ccccc3s2)c1OCC1CC1` [Example 50, 2-{2-[(E)-2-(2-Cyclopropylmethoxy-3-methoxyphenyl)vinyl]-1H-benzimidazol-1-yl}-1,3-benzothiazole], the inhibition at 1 µM amounted to 26.1% and the inhibition at 10 µM stood at 46.6%.

In the case of `COc1cccc(/C=C/c2nc3ccccc3n2-c2nccs2)c1OC1CCCC1` [Example 47, 2-[(E)-2-(2-Cyclopentyloxy-3-methoxyphenyl)vinyl]-1-(1,3-thiazol-2-yl)-1H-benzimidazole], the inhibition at 1 µM stood at 22.4% and the inhibition at 10 µM amounted to 79.7%.

For the compound `COc1cccc(/C=C/c2nc3cc(F)c(F)cc3n2-c2ccc(C#N)cn2)c1OC1CCCC1` [Example 68, 6-{2-[(E)-2-(2-Cyclopentyloxy-3-methoxyphenyl)vinyl]-5,6-difluoro-1H-benzimidazol-1-yl}nicotinonitrile], the inhibition at 1 µM was 95%, the inhibition at 10 µM is 99.1% and the pIC50 is 7.00 to 7.30.

In general, inhibition refers to the share of the control response that was lost under treatment. Usually pIC50 stands for −log10 of the IC50, conventionally taken in molar units.
